# What was measured:
# PI3Kα = molecular target: T1, PI3Kα (Homo sapiens, UniProt P42336); test: In vitro test of enzyme activity (ADP-Glo lipokinase), PI3K alpha; type: biochemical; conditions: 40 μM ATP, 50 μM PIP2:3PS, 120 min
# T1 construct: purchased Millipore 14-602-K
# PI3Kβ = molecular target: T2, PI3Kβ (Homo sapiens, UniProt P42338); test: In vitro test of enzyme activity (ADP-Glo lipokinase), PI3K beta; type: biochemical; conditions: 40 μM ATP, 50 μM PIP2:3PS, 120 min
# T2 construct: purchased Promega V1751
# PI3Kδ = molecular target: T3, PI3Kδ (Homo sapiens, UniProt O00329); test: In vitro test of enzyme activity (ADP-Glo lipokinase), PI3K delta; type: biochemical; conditions: 40 μM ATP, 50 μM PIP2:3PS, 120 min
# T3 construct: purchased Millipore 14-604-K
# [1] = In vivo DMPK study in mice after a single administration; parameters: species or system female Balb/c mice; conditions: female, Balb/c, mouse, plasma, intravenous 1 mg/kg
# Experimental: Experimental objective: female Balb/c mice were used as the test animals, and the blood concentration of the compound was determined and the pharmacokinetic behavior was evaluated after a single administration.
# Experimental operation: 12 healthy adult female Balb/c mice were selected, 6 for intravenous injection group and 6 for oral administration group. The compound to be tested was mixed with an appropriate amount of intravenous injection group vehicle (10% HP-betaCD: 10% solutol=1:1, pH=8), vortex-mixed and sonicated to prepare a 1.0 mg/mL clear solution, followed by filtration for subsequent use; the vehicle in the oral group was 0.5% MC/0.2% Tw80. After the test compound and the vehicle were mixed, it was vortex-mixed and sonicated to prepare a 1.0 mg/mL homogeneous suspension for subsequent use. After an intravenous administration at a dose of 1 mg/kg or an oral administration at the dose of 2 mg/kg and 10 mg/kg, whole blood of the mice was collected for a certain period of time to prepare plasma. The drug concentration was analyzed by LC-MS/MS method, and Phoenix WinNonlin software was used (Pharsight, USA) to calculate the pharmacokinetic parameters.
# Cmax: the highest concentration of the drug in the body; F %: oral bioavailability; Oral DNAUC: area under the dose normalization curve; Vd: apparent volume of distribution; Cl: clearance rate; T1/2: half-life.
# T3 sequence (O00329 whole entry): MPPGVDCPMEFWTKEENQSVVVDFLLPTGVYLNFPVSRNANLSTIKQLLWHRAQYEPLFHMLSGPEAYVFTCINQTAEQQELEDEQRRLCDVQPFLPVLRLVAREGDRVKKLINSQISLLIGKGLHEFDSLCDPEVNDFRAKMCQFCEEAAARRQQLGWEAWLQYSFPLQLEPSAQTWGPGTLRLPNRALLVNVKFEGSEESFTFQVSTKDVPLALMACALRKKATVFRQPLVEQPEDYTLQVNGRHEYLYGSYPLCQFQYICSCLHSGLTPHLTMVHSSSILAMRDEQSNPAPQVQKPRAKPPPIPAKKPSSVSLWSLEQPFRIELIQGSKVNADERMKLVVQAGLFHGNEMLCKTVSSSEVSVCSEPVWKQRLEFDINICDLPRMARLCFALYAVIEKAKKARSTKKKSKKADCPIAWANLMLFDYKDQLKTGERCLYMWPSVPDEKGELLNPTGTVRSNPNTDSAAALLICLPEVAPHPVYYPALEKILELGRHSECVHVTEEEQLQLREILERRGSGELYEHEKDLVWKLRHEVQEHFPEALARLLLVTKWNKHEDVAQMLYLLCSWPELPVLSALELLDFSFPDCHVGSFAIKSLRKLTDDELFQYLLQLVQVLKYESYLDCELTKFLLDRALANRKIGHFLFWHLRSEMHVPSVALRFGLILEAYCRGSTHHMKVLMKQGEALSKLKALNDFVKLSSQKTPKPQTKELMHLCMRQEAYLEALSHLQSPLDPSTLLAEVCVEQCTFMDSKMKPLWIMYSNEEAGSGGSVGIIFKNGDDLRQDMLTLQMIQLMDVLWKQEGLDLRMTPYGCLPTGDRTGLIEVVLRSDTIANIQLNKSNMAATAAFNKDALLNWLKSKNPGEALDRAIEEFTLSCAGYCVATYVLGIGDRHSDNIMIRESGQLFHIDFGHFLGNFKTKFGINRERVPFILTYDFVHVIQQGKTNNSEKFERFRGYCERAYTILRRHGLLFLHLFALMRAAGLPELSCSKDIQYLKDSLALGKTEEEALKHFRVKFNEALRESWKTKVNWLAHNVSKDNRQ
# T3 sequence (P27986 whole entry partner): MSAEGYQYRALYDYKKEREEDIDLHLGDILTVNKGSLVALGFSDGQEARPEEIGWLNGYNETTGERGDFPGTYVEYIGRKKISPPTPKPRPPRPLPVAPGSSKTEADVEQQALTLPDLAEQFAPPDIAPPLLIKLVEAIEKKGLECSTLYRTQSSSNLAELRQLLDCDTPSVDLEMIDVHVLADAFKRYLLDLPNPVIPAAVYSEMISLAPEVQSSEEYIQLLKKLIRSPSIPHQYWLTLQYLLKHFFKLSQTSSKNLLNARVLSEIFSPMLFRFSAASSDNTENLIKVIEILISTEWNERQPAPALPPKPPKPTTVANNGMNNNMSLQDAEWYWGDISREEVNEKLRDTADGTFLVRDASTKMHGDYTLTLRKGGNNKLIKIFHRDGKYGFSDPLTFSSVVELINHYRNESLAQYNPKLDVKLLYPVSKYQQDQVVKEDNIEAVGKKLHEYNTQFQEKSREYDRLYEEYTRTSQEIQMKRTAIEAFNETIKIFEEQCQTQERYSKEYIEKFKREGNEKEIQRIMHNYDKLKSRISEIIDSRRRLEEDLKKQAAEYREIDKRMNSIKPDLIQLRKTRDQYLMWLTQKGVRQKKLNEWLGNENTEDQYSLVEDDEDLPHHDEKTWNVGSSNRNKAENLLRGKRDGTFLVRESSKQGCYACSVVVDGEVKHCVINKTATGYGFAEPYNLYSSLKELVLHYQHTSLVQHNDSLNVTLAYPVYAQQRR
# T1 sequence (P42336 whole entry): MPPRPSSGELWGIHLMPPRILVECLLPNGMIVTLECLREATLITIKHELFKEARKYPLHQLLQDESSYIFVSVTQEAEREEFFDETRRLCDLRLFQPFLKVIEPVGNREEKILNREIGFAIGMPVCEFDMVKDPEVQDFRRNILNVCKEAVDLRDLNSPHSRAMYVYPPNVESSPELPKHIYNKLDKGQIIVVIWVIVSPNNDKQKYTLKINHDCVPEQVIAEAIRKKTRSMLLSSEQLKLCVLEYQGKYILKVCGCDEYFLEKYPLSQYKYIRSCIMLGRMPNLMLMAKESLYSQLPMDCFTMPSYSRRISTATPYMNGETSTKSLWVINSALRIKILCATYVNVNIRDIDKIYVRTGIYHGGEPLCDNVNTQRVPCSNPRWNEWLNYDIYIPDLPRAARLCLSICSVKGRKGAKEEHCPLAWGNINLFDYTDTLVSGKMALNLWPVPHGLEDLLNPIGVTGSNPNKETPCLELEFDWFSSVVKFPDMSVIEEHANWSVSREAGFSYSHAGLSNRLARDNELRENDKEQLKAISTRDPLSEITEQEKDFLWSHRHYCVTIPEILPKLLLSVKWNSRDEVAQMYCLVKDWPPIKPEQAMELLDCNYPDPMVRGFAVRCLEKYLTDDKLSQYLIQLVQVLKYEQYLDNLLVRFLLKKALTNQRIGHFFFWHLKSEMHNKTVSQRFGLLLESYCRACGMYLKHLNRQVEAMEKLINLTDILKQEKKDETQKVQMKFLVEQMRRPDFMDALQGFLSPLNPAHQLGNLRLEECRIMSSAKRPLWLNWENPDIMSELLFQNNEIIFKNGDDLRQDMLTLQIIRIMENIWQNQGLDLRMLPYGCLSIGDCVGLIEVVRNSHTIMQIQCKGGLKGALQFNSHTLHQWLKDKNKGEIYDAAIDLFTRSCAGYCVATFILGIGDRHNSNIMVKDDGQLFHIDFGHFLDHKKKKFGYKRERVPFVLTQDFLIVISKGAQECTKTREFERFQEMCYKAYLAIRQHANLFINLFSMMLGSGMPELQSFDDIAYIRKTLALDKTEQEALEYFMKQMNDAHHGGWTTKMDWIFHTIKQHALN
# T1 sequence (P27986 whole entry partner): as the sequence (P27986 whole entry partner) above
# T2 sequence (P42338 whole entry): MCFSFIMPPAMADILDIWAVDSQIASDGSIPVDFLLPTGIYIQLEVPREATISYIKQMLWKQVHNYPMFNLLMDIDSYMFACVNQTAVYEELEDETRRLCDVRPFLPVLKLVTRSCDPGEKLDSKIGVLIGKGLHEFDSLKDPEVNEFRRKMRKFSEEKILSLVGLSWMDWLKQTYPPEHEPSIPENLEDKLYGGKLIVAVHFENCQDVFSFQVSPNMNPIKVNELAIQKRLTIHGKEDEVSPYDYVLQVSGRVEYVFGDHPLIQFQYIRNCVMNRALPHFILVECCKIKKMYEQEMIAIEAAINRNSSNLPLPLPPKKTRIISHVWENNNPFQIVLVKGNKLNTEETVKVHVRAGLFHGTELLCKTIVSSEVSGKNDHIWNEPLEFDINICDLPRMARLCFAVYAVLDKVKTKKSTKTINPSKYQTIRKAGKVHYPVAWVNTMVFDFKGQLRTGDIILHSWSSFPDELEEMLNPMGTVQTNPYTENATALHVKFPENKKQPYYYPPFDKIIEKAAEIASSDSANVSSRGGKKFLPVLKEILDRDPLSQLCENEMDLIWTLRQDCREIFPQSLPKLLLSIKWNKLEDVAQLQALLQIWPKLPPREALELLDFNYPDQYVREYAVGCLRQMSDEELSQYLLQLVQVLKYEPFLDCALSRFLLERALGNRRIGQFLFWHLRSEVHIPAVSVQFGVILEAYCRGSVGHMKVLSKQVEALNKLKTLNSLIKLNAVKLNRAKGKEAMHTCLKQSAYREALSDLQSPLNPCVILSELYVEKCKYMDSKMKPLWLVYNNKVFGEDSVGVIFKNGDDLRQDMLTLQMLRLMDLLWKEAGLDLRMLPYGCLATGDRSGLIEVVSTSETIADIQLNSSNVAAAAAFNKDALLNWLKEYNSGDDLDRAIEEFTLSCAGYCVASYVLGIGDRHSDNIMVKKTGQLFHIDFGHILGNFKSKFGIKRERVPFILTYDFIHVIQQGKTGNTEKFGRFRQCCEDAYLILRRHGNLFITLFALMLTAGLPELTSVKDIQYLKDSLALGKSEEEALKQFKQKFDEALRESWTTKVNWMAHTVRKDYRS
# T2 sequence (P27986 whole entry partner): as the sequence (P27986 whole entry partner) above
smiles,measurement,setting,value
CNC(=O)CCCn1cnc2ccc(-c3cnc(OC)c(NS(=O)(=O)c4ccc(F)cc4Cl)c3)cc2c1=O [WX198],IC50,PI3Kα,1.1 nM
same,IC50,PI3Kβ,33 nM
same,IC50,PI3Kδ,2.1 nM
same,clearance,[1]; read-out: Cl (clearance rate),4.16 mL/min/kg
same,half-life,[1]; read-out: Intravenous injection T1/2 (converted),53.4 min
same,Vd,[1]; read-out: Vd (apparent volume of distribution),0.257 L/kg
